From PubChem BioAssay (NCI)
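1) Cells in 96-well plates. 2) Compound, 48 h, 5 concentrations. 3) Linear interpolation between surrounding doses. 4) Unreached endpoint = highest concentration. At the GI50, growth is halved. The concentration for full growth arrest is given as TGI.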

How the values were obtained:
Experiment in all cases: inhibition of tumour cell growth, NCI panel, 48 h
HCC-2998 colon = system: HCC-2998 colon
UO-31 renal = system: UO-31 renal
UACC-62 melanoma = system: UACC-62 melanoma
HCT-15 colon = system: HCT-15 colon
OVCAR-5 ovarian = system: OVCAR-5 ovarian
SK-MEL-2 melanoma = system: SK-MEL-2 melanoma
OVCAR-3 ovarian = system: OVCAR-3 ovarian
CAKI-1 renal = system: CAKI-1 renal
MDA-MB-435 = system: MDA-MB-435
MDA-MB-231 breast = system: MDA-MB-231 breast

| Structure (SMILES) | TGI (HCC-2998 colon) [µM] | TGI (UO-31 renal) [µM] | TGI (UACC-62 melanoma) [µM] | TGI (HCT-15 colon) [µM] | TGI (OVCAR-5 ovarian) [µM] | TGI (SK-MEL-2 melanoma) [µM] | TGI (OVCAR-3 ovarian) [µM] | TGI (CAKI-1 renal) [µM] | GI50 (UO-31 renal) [µM] | GI50 (UACC-62 melanoma) [µM] | GI50 (HCT-15 colon) [µM] | GI50 (MDA-MB-435) [µM] | TGI (MDA-MB-435) [µM] | GI50 (CAKI-1 renal) [µM] | GI50 (OVCAR-5 ovarian) [µM] | GI50 (MDA-MB-231 breast) [µM] | TGI (MDA-MB-231 breast) [µM] | GI50 (SK-MEL-2 melanoma) [µM] | GI50 (OVCAR-3 ovarian) [µM] | GI50 (HCC-2998 colon) [µM] |
| --- | --- | --- | --- | --- | --- | --- | --- | --- | --- | --- | --- | --- | --- | --- | --- | --- | --- | --- | --- | --- |
| C[C@]12Cc3conc3C(O)=C1CC[C@@H]1C2CC[C@@]2(C)C1CC[C@]2(C)O (stereo not given in full) | 62.1 | 50.3 | 29.2 | > 100 | 92.2 | 39.3 | 80.7 | – | – | – | – | – | – | – | – | – | – | – | – | – |
| CCCS(=O)c1nc(COC(=O)NC)c(COC(=O)NC)n1C (stereo not given) | > 100 | > 100 | > 100 | > 100 | > 100 | > 100 | > 100 | > 100 | – | – | – | – | – | – | – | – | – | – | – | – |
| C(=C\c1ccncc1)/c1ccncc1 | – | > 100 | > 100 | > 100 | > 100 | > 100 | > 100 | > 100 | 50.5 | > 100 | > 100 | > 100 | > 100 | > 100 | > 100 | > 100 | > 100 | > 100 | > 100 | – |
| Cc1cc(-c2nc3n(c2/C=N/N=C(N)N)CCS3)c(C)s1 | – | 36.8 | 25.5 | 28 | 29.8 | – | 36.3 | 23.8 | 17.8 | 12.9 | 14.8 | 18.5 | 32.5 | 8.02 | 14.9 | 13.4 | 27.1 | – | 21.9 | – |
| COC(=O)C12C34C=CC5(CCC6(C=CC1(CC3)O6)C52C(=O)OC)O4 (stereo not given) | > 100 | – | – | – | > 100 | > 100 | – | > 100 | – | – | – | – | – | – | – | – | – | – | – | – |
| O=C1C(Cl)=C(Nc2cc(Cl)ccc2O)C(=O)N1Cc1ccccc1 | – | > 54.6 | 30.8 | 32.6 | 35.4 | 53.3 | 35.8 | 40.9 | 32.7 | 16.2 | 17 | 19 | 34.9 | 18.3 | 18.8 | 17.5 | 33.2 | 20.3 | 18.6 | – |
| CC(=O)[CH-]C(=O)c1ccccc1.CC(=O)[CH-]C(=O)c1ccccc1.CC[C@H](/C=C/C(C)[C@H]1CCC2[C@@H]3CC=C4C[C@@H]([O-])CC[C@]4(C)C3CC[C@@]21C)C(C)C.CC[C@H](/C=C/C(C)[C@H]1CCC2[C@@H]3CC=C4C[C@@H]([O-])CC[C@]4(C)C3CC[C@@]21C)C(C)C.Cl.[Ti+4] (stereo not given in full) | > 25 | > 25 | > 25 | > 25 | > 25 | > 25 | > 25 | > 25 | > 25 | > 25 | > 25 | – | – | > 25 | > 25 | – | – | > 25 | > 25 | > 25 |
| C[C@@H](CS[As](C)C)C(=O)N1CCC[C@H]1C(=O)O | – | 0.8 | 0.855 | 1.28 | 1.8 | 5.88 | 0.223 | 0.409 | 0.0923 | 0.207 | 0.0888 | 0.138 | 0.468 | 0.0977 | 0.444 | 0.226 | 1.35 | 0.468 | 0.0736 | – |
